From the NIST ThermoML archive (doi:10.1021/je200305n)
Numbers after ± are expanded uncertainties.

Settings: Liquid

| Structure (SMILES) | vapor or sublimation pressure (337.42 K) [kPa] | vapor or sublimation pressure (329 K) [kPa] |
| --- | --- | --- |
| CO [methanol] | 100 ± 1.3 | – |
| CC(C)=O [acetone] | – | 100 ± 1.3 |
